Data published in patent publication US20140336248A1, “THERAPEUTIC COMPOSITIONS AND RELATED METHODS OF USE” (priority 2011, published 2014).

Columns and labels:
ICR mice [1] = experiment: Tolerability 5.0, 10.0 mg/kg orally in 1% ethanol/4% propylene glycol/5% Solutol HS 15 (Example J); assay type: in vivo, mouse
Protocol: (§1) Fompositions for oral administration were prepared as follows: A) 1.0 mg/mL composition: 5.05 mg of salinomycin sodium was added to 50 μL ethanol and vortexed for 1 minute to yield a clear solution. 200 μL of propylene glycol was then added and vortexed for 1 minute, yielding a clear solution. To this solution was next added 250 μL Solutol® HS 15, with vortexing for 1 minute and sonicating for 1 minute, to yield a clear solution.
(§2) Six male ICR mice (Sino-British SIPPR/BK Lab Animal Ltd, Shanghai, China) were assigned to control and treatment groups. […] The individual animal number marked on the tail, and study number comprised a unique identification for each animal. Animal identification was verified during the course of the study. The animals were housed two per cage in stainless steel suspended cage in an environmentally controlled room. SLACOM (Rodent Diet #20110615029, Shanghai SLAC Laboratory Animal Co. Ltd.) was available ad libitum. Temperature and humidity were monitored and recorded twice daily.
Each composition and the vehicle (control) were administered once daily to each of two mice via oral gavage for 5 consecutive days. The dose levels for the treated groups and the control group are in the below table. Individual doses were based on the most recent body weight.
(§3) Body weights for all animals were measured and recorded at receipt, prior to randomization, and once daily during the study. Body weight change was calculated for mean value of animals relative to Day 1 mean body weight value.

ICR mice [2] = experiment: Tolerability 0.1, 0.3, 1.0, 3.0 mg/kg IV in 5% ethanol/15% Solutol HS 15, 4 days (Example N); assay type: in vivo, mouse
Protocol: as §2, with “Using the techniques described above in Example A, an aqueous vehicle comprising 5% ethanol (v/v) and 15% Solutol® HS 15 (v/v) was prepared. An appropriate amount of salinomycin sodium was dissolved into the vehicle to make solutions having concentrations of 0.02, 0.06, 0.2, and 0.3 mg/mL. Ten male ICR” for “Six male ICR”, “animal number was marked on” for “animal number marked on”
(§4) Each composition and the vehicle (control) were administered once daily to each of two mice via intravenous bolus injection for 4 consecutive days. The dose levels for the treated groups and the control group are in the below table. Individual doses were based on the most recent body weight.
as §3

ICR mice [3] = experiment: Tolerability 0.3, 0.6, 1.0 mg/kg IV in 1% ethanol/4% propylene glycol/5% Solutol HS 15 (Example H); assay type: in vivo, mouse; details: male ICR mice
Protocol: as §1, with “Injectable salinomycin compositions” for “Fompositions for oral administration”, “0.2” for “1.0”, “1.01” for “5.05”
as §2, with “Eight” for “Six”
(§5) Each composition and the vehicle (control) were administered once daily to each of two mice via intravenous bolus injection for 5 consecutive days. The dose levels for the treated groups and the control group are in the below table. Individual doses were based on the most recent body weight.
as §3

ICR mice [4] = experiment: Tolerability IV in 10% ethanol/10% Solutol HS 15, 5 days (Example K); assay type: in vivo, mouse; details: for Clinical observations: post dosage
Protocol: Injectable salinomycin compositions were prepared as follows: 0.6 mg/mL stock solution: 1.2 mg of salinomycin sodium was added to 200 μL ethanol and vortexed for 2 minutes and sonicated for 30 seconds to yield a clear solution. To this solution was next added 200 μL Solutol® HS 15, with vortexing for 2 minutes. Finally, 1.6 mL water was added to produce a clear stock solution of 0.6 mg/mL salinomycin sodium.
as §2, §5, §3

[5] = assay type: physicochemical
Excerpt: The precipitate observed in Batch A in Example S was isolated and subjected to XRPD analysis. Comparative evaluation was done as shown in FIG. 11 using (1) API used in the formulation (Batch C, manufactured by Neuland Laboratories Ltd., India) and (2) API from a different lot (Batch D).

ICR mice [6] = experiment: Tolerability 0.1, 0.3, 1.0, 3.0 mg/kg IV in 10% ethanol/10% Solutol HS 15, 4 days (Example M); assay type: in vivo, mouse
Protocol: as §2, with “Using the techniques described above in Example B, an aqueous vehicle comprising 10% ethanol (v/v) and 10% Solutol® HS 15 (v/v) was prepared. An appropriate amount of salinomycin sodium was dissolved into the vehicle to make solutions having concentrations of 0.02, 0.06, 0.2, and 0.3 mg/mL. Ten male ICR” for “Six male ICR”, “animal number was marked on” for “animal number marked on”
as §4, §3

ICR mice [7] = experiment: Tolerability 1.5, 2.0, 3.0 mg/kg IV in 1% ethanol/4% propylene glycol/5% Solutol HS 15 (Example I); assay type: in vivo, mouse; details: for Body weight: FIG. 2
Protocol: as §1, with “Injectable salinomycin compositions” for “Fompositions for oral administration”, “0.6” for “1.0”, “3.03” for “5.05”
as §2, with “Eight” for “Six”
as §5, §3

[8] = 1.0 mg/kg IV once daily 4 days, after the first administration, no abnormalities on days 2, 3, 4

## CC[C@@H](C(=O)[C@@H](C)[C@@H](O)[C@H](C)[C@@H]1O[C@@H]([C@@H](CC)C(=O)O)CC[C@@H]1C)[C@H]1O[C@]2(C=C[C@@H](O)[C@]3(CC[C@@](C)([C@H]4CC[C@](O)(CC)[C@H](C)O4)O3)O2)[C@H](C)C[C@@H]1C [salinomycin sodium]
ICR mice [1]; 5, 10 mg/kg oral gavage once daily 5 days, 1% ethanol/4% propylene glycol/5% Solutol HS 15
  Abnormalities detected: no abnormalities
ICR mice [1]; 5, 10 mg/kg oral gavage once daily 5 days, 1% ethanol/4% propylene glycol/5% Solutol HS 15, FIG. 3
  Body weight change relative to Day 1: all groups added weight
ICR mice [1]; oral gavage once daily 5 days, male ICR mice
  Maximum oral tolerated dosage: at least 10 mg/kg
ICR mice [2]; 0.1 mg/kg IV once daily 4 days
  Clinical observations: no abnormalities
ICR mice [2]; 0.3 mg/kg IV once daily 4 days
  Clinical observations: no abnormalities
ICR mice [2]; [8]
  Clinical observations: decreased activity, decreased grasping, and laying prostrate
ICR mice [2]; 3.0 mg/kg IV
  Mortality: died shortly after administration
ICR mice [2]; each group surviving administration, IV once daily 4 days, FIG. 7
  Body weight: relatively stable
ICR mice [3]; 0.3, 0.6, 1.0 mg/kg IV bolus once daily 5 days
  Abnormalities detected: no abnormalities
ICR mice [3]; 0.3, 0.6, 1.0 mg/kg IV bolus once daily 5 days, FIG. 1
  Body weight change relative to Day 1: all groups added weight
ICR mice [3]; IV once daily 5 days
  Dose that can be safely dosed: 1 mg/kg
ICR mice [4]; 0.1 mg/kg IV once daily 5 days
  Clinical observations: decreased activity (e.g., more time spent laying prostrate), rapid breathing, and partially-closed eyelids
ICR mice [4]; 0.3 mg/kg IV once daily 5 days
  Clinical observations: decreased activity levels, partially-closed eyelids, and skin cold to the touch
ICR mice [4]; 0.1, 0.3 mg/kg IV once daily 5 days, FIG. 4
  Body weight change relative to Day 1: all groups added weight
[5]
  Solubility (conclusion): inadequate solubility
[5]; API used in the formulation along with API of a different lot
  Solid form by XRPD: amorphous nature
ICR mice [6]; 0.1 mg/kg IV once daily 4 days
  Clinical observations: no abnormalities
ICR mice [6]; 0.3 mg/kg IV once daily 4 days, dissipated after 3 hours, no abnormalities on days 2, 3, 4
  Clinical observations: skin cold to the touch after the first administration
ICR mice [6]; [8]
  Clinical observations: decreased activity, decreased grasping, and skin cold to the touch
ICR mice [6]; 3.0 mg/kg IV
  Mortality: died shortly after administration
ICR mice [6]; each group surviving administration, IV once daily 4 days, FIG. 6
  Body weight: relatively stable
ICR mice [7]; 1.5 mg/kg IV once daily 5 days
  Clinical observations: decreased activity levels
  Recovery: returned to normal function at the conclusion of the study
ICR mice [7]; 2 mg/kg IV once daily 5 days
  Body weight: lost weight
ICR mice [7]; 2.0 mg/kg IV once daily 5 days, post dosage
  Clinical observations: decreased activity and rapid breathing
ICR mice [7]; 2.0 mg/kg IV once daily 5 days, two mice
  Mortality: One of the animals dosed at 2.0 mg/kg was found dead on day 4
ICR mice [7]; 3.0 mg/kg IV once daily 5 days, after dosing
  Clinical observations: decreased activity, rapid breathing and loss of reflex activity
ICR mice [7]; 1.5 and 3.0 mg/kg IV once daily 5 days
  Body weight: stable
